Assay results as given in US11191811B2, “Osteocalcin as a treatment for frailty associated with aging” (THE TRUSTEES OF COLUMBIA UNIVERSITY IN THE CITY OF NEW YORK, priority 2014, dated 2021).
Read-outs that look alike come from different tables or passages of the source.

How the values were obtained:
gamma-carboxylase = target: T1, gamma-carboxylase (Homo sapiens, UniProt P38435); settings: thiol-specific inhibitors; cited from earlier work
T1 sequence (P38435 1-758): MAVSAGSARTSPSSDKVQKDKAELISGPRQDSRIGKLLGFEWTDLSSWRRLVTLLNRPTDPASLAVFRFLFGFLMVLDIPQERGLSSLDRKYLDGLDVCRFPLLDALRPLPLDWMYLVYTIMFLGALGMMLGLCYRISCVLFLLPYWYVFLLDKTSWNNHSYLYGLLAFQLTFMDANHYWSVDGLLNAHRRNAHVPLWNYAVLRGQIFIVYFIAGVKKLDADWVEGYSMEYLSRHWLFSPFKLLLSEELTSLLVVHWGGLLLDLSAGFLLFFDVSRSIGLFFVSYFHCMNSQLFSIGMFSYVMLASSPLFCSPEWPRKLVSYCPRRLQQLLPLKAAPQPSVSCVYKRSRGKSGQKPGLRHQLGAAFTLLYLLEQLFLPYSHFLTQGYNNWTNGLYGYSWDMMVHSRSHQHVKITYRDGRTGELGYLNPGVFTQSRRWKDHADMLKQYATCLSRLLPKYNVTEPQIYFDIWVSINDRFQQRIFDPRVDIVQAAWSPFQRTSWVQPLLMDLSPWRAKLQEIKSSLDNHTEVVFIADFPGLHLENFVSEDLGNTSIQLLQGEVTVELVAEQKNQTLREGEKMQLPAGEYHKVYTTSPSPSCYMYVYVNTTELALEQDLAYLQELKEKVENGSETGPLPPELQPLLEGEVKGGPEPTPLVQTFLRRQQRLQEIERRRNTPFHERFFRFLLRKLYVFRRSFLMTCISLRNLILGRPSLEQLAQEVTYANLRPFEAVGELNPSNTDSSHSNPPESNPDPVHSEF

osteoblasts = experiment: Gene expression in osteoblasts treated with IL-6; assay type: cell-based
Description: It was observed that treating osteoblasts with IL-6 decreased expression of Osteocalcin, thereby explaining why the circulating levels of total (carboxylated and uncarboxylated forms) osteocalcin are […] in Il6−/− mice. More importantly, IL-6 increased the expression in osteoblasts of Rankl, a cytokine that favors osteoclast differentiation and decreased the expression of Osteoprotegerin (Opg), a decoy receptor for Rankl and an inhibitor of bone resorption (Karsenty and Wagner, 2002, Developmental Cell 2:389-406; Palmqvist et al., 2002, J. Immunol. 169:3353-3362). This observation is consistent with the fact that the circulating levels of the undercarboxylated and active form of osteocalcin are decreased in Il6−/− mice (FIG. 29E). The regulation of Il-6 expression by osteocalcin signaling in myofibers and of bone resorption by IL-6 also explains why circulating levels of CTX, a biomarker of bone resorption, were low after exercise in Il6−/− and Gprc6aMck−/− mice (FIG. 29G-H). These experiments reveal the existence of a feed-forward regulation between osteocalcin production in bone and IL-6 synthesis in muscle that is necessary for the increase in muscle function during exercise. This regulatory loop should synergize with the ability of IL-6 to favor liver gluconeogenesis and lipolysis, since these two other functions of IL-6 increase the pool of nutrients made available for myofibers during exercise.
Serum osteocalcin, PINP, CTX, and insulin levels were measured using ELISA assays. Blood glucose level was measured using an Accu-Check glucometer. Urine 3-MHT was measured as previously described (Aranibar et al., 2011, Anal. Biochem. 410:84-91). Determination of cAMP accumulation was performed using a commercial kit (R&D). For gene expression, 1 μg of total RNA was reverse transcribed into cDNA. qPCR analyses were performed using a SYBER green master mix (Applied Biosciences) and a CFX-Connect real time PCR (Bio-Rad). Relative expression levels of each gene were normalized to that of Hprt or Gapdh. For in situ hybridization, muscle was frozen in liquid N2-cooled methylbutane. Samples were sectioned at 10 μm using a cryostat. In situ hybridization was performed with a DIG-labeled riboprobe as previously described (Oury et al., 2011, Cell 144:796-809).

| Compound | gamma-carboxylase enzyme activity (gamma-carboxylase) | expression of Osteocalcin in osteoblasts (osteoblasts) | expression of Osteoprotegerin (Opg) in osteoblasts (osteoblasts) | expression of Rankl in osteoblasts (osteoblasts) | expression of Osteocalcin in osteoblasts (osteoblasts; listed as interleukin-6) | expression of Rankl in osteoblasts (osteoblasts; listed as interleukin-6) |
| --- | --- | --- | --- | --- | --- | --- |
| CCN1C(=O)C=CC1=O [N-ethylmaleimide] | inhibited | – | – | – | – | – |
| IL-6: interleukin-6 (IL-6), a myokine whose circulating levels raise during exercise | – | decreased | decreased | increased | inhibits | stimulating |
| O=C([O-])c1cc[c]([Hg][OH])cc1 [pHMB, p-hydroxymurcuribenzoate] | inhibited | – | – | – | – | – |
